Results: PubChem BioAssay AID1963425 (Molecular Pharmacology Branch, DTP, NCI, 2024)

Test system: 323965-272-R-J2-PDC complex spheroid growth, % test/control
Experiment: Anticancer human tumor 323965-272-R-J2-PDC patient-derived pancreatic carcinoma cell line growth inhibition [Asc]
Conditions: for IC50: curve of first compound; for viability, T/C: stronger effect = lower value
How it was run: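 Tumor cells were grown as complex spheroids with human endothelial cells (HUVEC) and human mesenchymal stem cells as stroma. Agents were tested alone and in combination, in half-log steps down from the clinical Cmax, or from 10 microM where Cmax was unknown.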

[1] = second compound 0.0316 µM, first compound 0.00316 µM
[2] = second compound 0.0316 µM, first compound 0.01 µM
[3] = second compound 0.0316 µM, first compound 0.0316 µM
[4] = second compound 0.0316 µM, first compound 0.1 µM
[5] = second compound 0.1 µM, first compound 0.00316 µM
[6] = second compound 0.1 µM, first compound 0.01 µM
[7] = second compound 0.1 µM, first compound 0.0316 µM
[8] = second compound 0.1 µM, first compound 0.1 µM
[9] = second compound 0.316 µM, first compound 0.00316 µM
[10] = second compound 0.316 µM, first compound 0.01 µM
[11] = second compound 0.316 µM, first compound 0.0316 µM
[12] = second compound 0.316 µM, first compound 0.1 µM
[13] = second compound 1 µM, first compound 0.00316 µM
[14] = second compound 1 µM, first compound 0.01 µM
[15] = second compound 1 µM, first compound 0.0316 µM
[16] = second compound 1 µM, first compound 0.1 µM
[17] = second compound 3.16 µM, first compound 0.00316 µM
[18] = second compound 3.16 µM, first compound 0.01 µM
[19] = second compound 3.16 µM, first compound 0.0316 µM
[20] = second compound 3.16 µM, first compound 0.1 µM
[21] = second compound 10 µM, first compound 0.00316 µM
[22] = second compound 10 µM, first compound 0.01 µM
[23] = second compound 10 µM, first compound 0.0316 µM
[24] = second compound 10 µM, first compound 0.1 µM
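Also: compound exposure lasted 7 days starting three days after spheroid seeding.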
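For viability, T/C in this document: 100% = DMSO vehicle control wells with viability set relative to vehicle.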

Molecule `COc1c(OCCCN2CCOCC2)ccc2c3n(c(=NC(=O)c4cnc(N)nc4)nc12)CCN3` + Cc1c(S(C)(=O)=O)c(-c2cc(F)cc(N3CCN(c4ccc(NS(=O)(=O)c5ccc(NC(CCN6CCC(C(=O)OCCCP(=O)(O)O)CC6)CSc6ccccc6)c(S(=O)(=O)C(F)(F)F)c5)cc4)CC3)c2)c(-c2ccc(Cl)cc2)n1C(C)C has an IC50 (second compound 0.0316 µM) of 166 nM, an IC50 (second compound 0.1 µM) of 180 nM and an IC50 (second compound 0.316 µM) of 116 nM. The IC50 (second compound 1 µM) was 106 nM, the IC50 (second compound 3.16 µM) was 77.1 nM and the IC50 (second compound 10 µM) was 36.5 nM. The viability, T/C [1] was 110%, the viability, T/C [2] was 97.1% and the viability, T/C [3] was 86.4%. It also gave a viability, T/C [4] of 58.3%, a viability, T/C (second compound 0.0316 µM, first compound 0.316 µM) of 37.9% and a viability, T/C (second compound 0.0316 µM, first compound 1 µM) of 24.8%. It also gave a viability, T/C [5] of 100%, a viability, T/C [6] of 99.5% and a viability, T/C [7] of 73.8%. It also gave a viability, T/C [8] of 60.1%, a viability, T/C (second compound 0.1 µM, first compound 0.316 µM) of 42.4% and a viability, T/C (second compound 0.1 µM, first compound 1 µM) of 25.8%. The viability, T/C [9] was 107%, the viability, T/C [10] was 98.9% and the viability, T/C [11] was 71.5%. The viability, T/C [12] was 49%, the viability, T/C (second compound 0.316 µM, first compound 0.316 µM) was 42.3% and the viability, T/C (second compound 0.316 µM, first compound 1 µM) was 23.9%. The viability, T/C [13] was 94.1%, the viability, T/C [14] was 81.8% and the viability, T/C [15] was 74.9%. It also gave a viability, T/C [16] of 49.9%, a viability, T/C (second compound 1 µM, first compound 0.316 µM) of 32.4% and a viability, T/C (second compound 1 µM, first compound 1 µM) of 23.1%. For the same molecule, the viability, T/C [17] was 73.2%, the viability, T/C [18] was 71.5% and the viability, T/C [19] was 63.2%. For the same molecule, the viability, T/C [20] was 46%, the viability, T/C (second compound 3.16 µM, first compound 0.316 µM) was 29.4% and the viability, T/C (second compound 3.16 µM, first compound 1 µM) was 21.3%. For the same molecule, the viability, T/C [21] was 73.2%, the viability, T/C [22] was 67.7% and the viability, T/C [23] was 48.1%. The viability, T/C [24] was 39.4%, the viability, T/C (second compound 10 µM, first compound 0.316 µM) was 28.9% and the viability, T/C (second compound 10 µM, first compound 1 µM) was 19.3%.

In the case of `NC(=O)C(=Cn1cnc(-c2cc(C(F)(F)F)cc(C(F)(F)F)c2)n1)c1cncnc1` + Cc1c(S(C)(=O)=O)c(-c2cc(F)cc(N3CCN(c4ccc(NS(=O)(=O)c5ccc(NC(CCN6CCC(C(=O)OCCCP(=O)(O)O)CC6)CSc6ccccc6)c(S(=O)(=O)C(F)(F)F)c5)cc4)CC3)c2)c(-c2ccc(Cl)cc2)n1C(C)C, the IC50 (second compound 0.0316 µM) is reported as greater than 300 nM, the IC50 (second compound 0.1 µM) is reported as greater than 300 nM and the IC50 (second compound 0.316 µM) is reported as greater than 300 nM. For the same molecule, the IC50 (second compound 1 µM) was 205 nM, the IC50 (second compound 3.16 µM) was 114 nM and the IC50 (second compound 10 µM) was 63.7 nM. The viability, T/C (second compound 0.0316 µM, first compound 0.000949 µM) was 111%, the viability, T/C (second compound 0.0316 µM, first compound 0.003 µM) was 96.9% and the viability, T/C (second compound 0.0316 µM, first compound 0.00949 µM) was 115%. It also gave a viability, T/C (second compound 0.0316 µM, first compound 0.03 µM) of 89.1%, a viability, T/C (second compound 0.0316 µM, first compound 0.0949 µM) of 81.5% and a viability, T/C (second compound 0.0316 µM, first compound 0.3 µM) of 55.8%. For the same molecule, the viability, T/C (second compound 0.1 µM, first compound 0.000949 µM) was 95.2%, the viability, T/C (second compound 0.1 µM, first compound 0.003 µM) was 92.8% and the viability, T/C (second compound 0.1 µM, first compound 0.00949 µM) was 92%. The viability, T/C (second compound 0.1 µM, first compound 0.03 µM) was 94.8%, the viability, T/C (second compound 0.1 µM, first compound 0.0949 µM) was 78% and the viability, T/C (second compound 0.1 µM, first compound 0.3 µM) was 53.8%. For the same molecule, the viability, T/C (second compound 0.316 µM, first compound 0.000949 µM) was 94%, the viability, T/C (second compound 0.316 µM, first compound 0.003 µM) was 100% and the viability, T/C (second compound 0.316 µM, first compound 0.00949 µM) was 93.3%. For the same molecule, the viability, T/C (second compound 0.316 µM, first compound 0.03 µM) was 84.9%, the viability, T/C (second compound 0.316 µM, first compound 0.0949 µM) was 76.1% and the viability, T/C (second compound 0.316 µM, first compound 0.3 µM) was 49.8%. For the same molecule, the viability, T/C (second compound 1 µM, first compound 0.000949 µM) was 91%, the viability, T/C (second compound 1 µM, first compound 0.003 µM) was 88.6% and the viability, T/C (second compound 1 µM, first compound 0.00949 µM) was 80.2%. It also gave a viability, T/C (second compound 1 µM, first compound 0.03 µM) of 77.6%, a viability, T/C (second compound 1 µM, first compound 0.0949 µM) of 64.4% and a viability, T/C (second compound 1 µM, first compound 0.3 µM) of 42.6%. For the same molecule, the viability, T/C (second compound 3.16 µM, first compound 0.000949 µM) was 79%, the viability, T/C (second compound 3.16 µM, first compound 0.003 µM) was 78.1% and the viability, T/C (second compound 3.16 µM, first compound 0.00949 µM) was 76%. It also gave a viability, T/C (second compound 3.16 µM, first compound 0.03 µM) of 63.1%, a viability, T/C (second compound 3.16 µM, first compound 0.0949 µM) of 55% and a viability, T/C (second compound 3.16 µM, first compound 0.3 µM) of 32.6%. It also gave a viability, T/C (second compound 10 µM, first compound 0.000949 µM) of 69.9%, a viability, T/C (second compound 10 µM, first compound 0.003 µM) of 68.7% and a viability, T/C (second compound 10 µM, first compound 0.00949 µM) of 63.1%. For the same molecule, the viability, T/C (second compound 10 µM, first compound 0.03 µM) was 63.6%, the viability, T/C (second compound 10 µM, first compound 0.0949 µM) was 43% and the viability, T/C (second compound 10 µM, first compound 0.3 µM) was 30.3%.

Molecule `NC1CCC(NC2CC2c2ccccc2)CC1` (stereo unspecified) + Cc1c(S(C)(=O)=O)c(-c2cc(F)cc(N3CCN(c4ccc(NS(=O)(=O)c5ccc(NC(CCN6CCC(C(=O)OCCCP(=O)(O)O)CC6)CSc6ccccc6)c(S(=O)(=O)C(F)(F)F)c5)cc4)CC3)c2)c(-c2ccc(Cl)cc2)n1C(C)C has an IC50 (second compound 0.0316 µM) greater than 100 nM, an IC50 (second compound 0.1 µM) greater than 100 nM and an IC50 (second compound 0.316 µM) greater than 100 nM. For the same molecule, the IC50 (second compound 1 µM) was greater than 100 nM, the IC50 (second compound 3.16 µM) was greater than 100 nM and the IC50 (second compound 10 µM) was greater than 100 nM. The viability, T/C (second compound 0.0316 µM, first compound 0.000316 µM) was 105%, the viability, T/C (second compound 0.0316 µM, first compound 0.001 µM) was 107% and the viability, T/C [1] was 107%. For the same molecule, the viability, T/C [2] was 109%, the viability, T/C [3] was 122% and the viability, T/C [4] was 112%. It also gave a viability, T/C (second compound 0.1 µM, first compound 0.000316 µM) of 105%, a viability, T/C (second compound 0.1 µM, first compound 0.001 µM) of 99.2% and a viability, T/C [5] of 120%. For the same molecule, the viability, T/C [6] was 113%, the viability, T/C [7] was 109% and the viability, T/C [8] was 99%. The viability, T/C (second compound 0.316 µM, first compound 0.000316 µM) was 108%, the viability, T/C (second compound 0.316 µM, first compound 0.001 µM) was 101% and the viability, T/C [9] was 96.6%. The viability, T/C [10] was 103%, the viability, T/C [11] was 104% and the viability, T/C [12] was 102%. It also gave a viability, T/C (second compound 1 µM, first compound 0.000316 µM) of 94.4%, a viability, T/C (second compound 1 µM, first compound 0.001 µM) of 100% and a viability, T/C [13] of 93.9%. The viability, T/C [14] was 106%, the viability, T/C [15] was 96.5% and the viability, T/C [16] was 92.2%. For the same molecule, the viability, T/C (second compound 3.16 µM, first compound 0.000316 µM) was 84.5%, the viability, T/C (second compound 3.16 µM, first compound 0.001 µM) was 82.1% and the viability, T/C [17] was 81.5%. The viability, T/C [18] was 76.5%, the viability, T/C [19] was 90% and the viability, T/C [20] was 81.2%. The viability, T/C (second compound 10 µM, first compound 0.000316 µM) was 83%, the viability, T/C (second compound 10 µM, first compound 0.001 µM) was 70.1% and the viability, T/C [21] was 66.5%. It also gave a viability, T/C [22] of 84%, a viability, T/C [23] of 81.9% and a viability, T/C [24] of 73%.
